Measurements taken from patent publication US6992102B2, “Bicyclic modulators of androgen receptor function” (Bristol-Myers Squibb Company, priority 2001, dated 2006).

How the values were obtained:
AR = biological target: T1, AR (Rattus norvegicus, UniProt P15207)
T1 sequence (P15207 1-902): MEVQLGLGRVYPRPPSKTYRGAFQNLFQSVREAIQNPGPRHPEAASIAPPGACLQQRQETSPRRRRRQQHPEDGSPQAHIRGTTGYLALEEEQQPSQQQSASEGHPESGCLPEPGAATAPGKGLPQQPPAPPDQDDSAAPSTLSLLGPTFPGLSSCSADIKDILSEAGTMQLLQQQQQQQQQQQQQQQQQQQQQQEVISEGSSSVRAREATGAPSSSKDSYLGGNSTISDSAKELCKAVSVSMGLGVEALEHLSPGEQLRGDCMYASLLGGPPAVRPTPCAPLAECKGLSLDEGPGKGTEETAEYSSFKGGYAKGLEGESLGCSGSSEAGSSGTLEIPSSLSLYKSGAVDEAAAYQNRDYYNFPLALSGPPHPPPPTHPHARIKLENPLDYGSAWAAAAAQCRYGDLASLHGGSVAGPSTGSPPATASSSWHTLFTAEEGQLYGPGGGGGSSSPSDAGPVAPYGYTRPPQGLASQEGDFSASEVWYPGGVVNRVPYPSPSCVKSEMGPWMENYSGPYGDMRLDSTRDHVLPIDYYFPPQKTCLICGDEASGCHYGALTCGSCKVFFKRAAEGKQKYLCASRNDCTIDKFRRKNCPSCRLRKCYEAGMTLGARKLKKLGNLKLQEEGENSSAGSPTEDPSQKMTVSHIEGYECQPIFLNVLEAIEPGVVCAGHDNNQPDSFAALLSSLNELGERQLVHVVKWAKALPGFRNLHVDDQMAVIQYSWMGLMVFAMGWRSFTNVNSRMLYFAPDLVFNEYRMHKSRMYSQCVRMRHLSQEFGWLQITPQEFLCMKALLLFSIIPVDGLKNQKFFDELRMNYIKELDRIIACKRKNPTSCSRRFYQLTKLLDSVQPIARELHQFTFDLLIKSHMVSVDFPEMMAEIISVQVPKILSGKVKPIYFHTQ
From the text: The activity of compounds of the present invention as AR agonists was investigated in an immature male rat model, a recognized test of anabolic effects in muscle and sustaining effects in sex organs for a given compound, as described in L. G. Hershberger et al., Proc. Soc. […] Biol. Med., 83, 175 (1953); B. L. Beyler et al, “Methods for evaluating anabolic and catabolic agents in laboratory animals”, J. Amer. Med. Women's Ass., 23, 708 (1968); H. Fukuda et al., “Investigations of the levator ani muscle as an anabolic steroid assay”, Nago Dai. Yak. Ken. Nem. 14, 84 (1966) the disclosures of which are herein incorporated by reference.
The basis of this assay lies in the well-defined action of androgenic agents on the maintenance and growth of muscle tissues and sexual accessory organs in animals and man. […] J. Anat. […] Ital. Biol. Sper. […] II. […] Ital. Biol. Sper. 42, 1600 (1966); A. Boris et al., Steroids 15, 61 (1970). As described above, the effects of androgens on maintenance of male sexual accessory organs, such as the prostate and seminal vesicles, is well described. Castration results in rapid involution and atrophy of the prostate and seminal vesicles. This effect can be reversed by exogenous addition of androgens. […]

[1] = biological target: endogenous glucocorticoid receptor (Homo sapiens, UniProt P04150); conditions: concentration ≦10 µM; A549 cells stimulated with 10 ng/ml PMA; versus buffer control
Protocol: A549 cells, which contain endogenous glucocorticoid receptor, were stably transfected with an AP-1 DNA binding site attached to the luciferase gene. […] Cells are plated the day before the assay at approximately 40000 cells/well. […] Activity is measured by analysis in a luminometer as compared to control experiments treated with buffer or dexamethasome.

endogenous glucocorticoid receptor, sequence (P04150 whole entry): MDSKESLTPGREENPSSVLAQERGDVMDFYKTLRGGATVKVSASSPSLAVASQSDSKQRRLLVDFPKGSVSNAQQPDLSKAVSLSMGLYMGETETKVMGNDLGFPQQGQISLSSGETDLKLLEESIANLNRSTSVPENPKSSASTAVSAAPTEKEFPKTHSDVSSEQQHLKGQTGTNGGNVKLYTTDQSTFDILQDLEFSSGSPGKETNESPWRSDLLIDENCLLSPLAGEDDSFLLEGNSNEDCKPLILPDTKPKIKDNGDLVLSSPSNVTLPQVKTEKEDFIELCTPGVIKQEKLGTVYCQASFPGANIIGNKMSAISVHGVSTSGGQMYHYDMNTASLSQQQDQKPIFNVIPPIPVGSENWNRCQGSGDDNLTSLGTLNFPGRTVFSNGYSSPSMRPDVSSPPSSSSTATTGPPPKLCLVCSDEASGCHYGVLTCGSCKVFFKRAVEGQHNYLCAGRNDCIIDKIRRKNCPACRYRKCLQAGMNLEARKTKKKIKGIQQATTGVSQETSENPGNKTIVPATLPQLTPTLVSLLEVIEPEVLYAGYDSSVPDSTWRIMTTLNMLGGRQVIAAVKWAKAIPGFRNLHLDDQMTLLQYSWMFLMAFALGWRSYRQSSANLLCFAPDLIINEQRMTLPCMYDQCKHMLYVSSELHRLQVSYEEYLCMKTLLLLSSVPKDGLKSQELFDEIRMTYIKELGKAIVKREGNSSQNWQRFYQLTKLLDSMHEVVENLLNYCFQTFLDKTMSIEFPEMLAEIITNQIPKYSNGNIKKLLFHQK

Structure (SMILES)	melting point [°C]	further results
N#Cc1ccc(N2C(=O)C3=CCCN3C2=O)c2ccccc12	230 to 232	–
C[C@@]12C(=O)N(c3ccc(C#N)c4ccccc34)C(=O)N1CC[C@@H]2O	234 to 235	–
C[C@]12C(=O)N(c3ccc(C#N)c4ccccc34)C(=O)N1CC[C@H]2O	232 to 234	–
N#Cc1ccc(N2C(=O)[C@@H]3[C@H](O)CCN3C2=S)c2ccccc12	215 to 216	–
CC(C)(C)[C@H]1N(c2ccc(C#N)c3ccccc23)C(=O)[C@@H]2C[C@@H](O)CN21	155 to 157	–
N#Cc1ccc(N2C(=O)[C@H]3[C@@H](O)CCCN3C2=O)c2ccccc12	244	–
CC(C)(C)OC(=O)N1CCN2C(=O)N(c3ccc(C#N)c4ccccc34)C(=O)C2C1 (stereo not shown)	222 to 224	–
N#Cc1ccc(N2C[C@@H]3[C@H](O)CCN3C2=O)c2ccccc12	226 to 228	–
N#Cc1ccc(N2CC3[C@@H](O)CCN3C2=O)c2ccccc12 (stereo partly shown)	226 to 228	–
O=C1C2C[C@@H](OCc3ccccc3)CN2C(=O)N1c1ccc([N+](=O)[O-])c2ccccc12 (stereo partly shown)	120 to 122	–
O=C1C2CCCCN2C(=O)N1c1ccc([N+](=O)[O-])c2ccccc12 (racemic)	190 to 192	–
O=C1[C@H]2[C@@H](O)CCN2C(=O)N1c1ccc(Br)c2ccccc12 (racemic)	204 to 206	–
CO[C@H]1CCN2C(=O)N(c3ccc(C#N)c4ccccc34)C(=O)[C@@H]12 (racemic)	185 to 186	–
CC(=O)O[C@@H]1CCN2C(=O)N(c3ccc(C#N)c4ccccc34)C(=O)[C@H]12 (racemic)	105	–
N#Cc1ccc(N2C(=O)[C@@H]3[C@H](O)CCCN3C2=O)c2ccccc12 (racemic)	243	–
Cl.N#Cc1ccc(N2C(=O)C3CNCCN3C2=O)c2ccccc12 (racemic)	200	–
CS(=O)(=O)N1CCN2C(=O)N(c3ccc(C#N)c4ccccc34)C(=O)C2C1 (racemic)	207 to 216	–
N#Cc1ccc(N2C(=O)[C@H]3[C@@H](O)[C@@H](O)CN3C2=O)c2ccccc12 (stereo in doubt)	246	–
N#Cc1ccc(N2C(=O)[C@@H]3[C@H](O)[C@H](O)CN3C2=O)c2ccccc12 (stereo in doubt)	225	–
CCC(=O)O[C@H]1CC[C@H]2[C@@H]3CCC4=CC(=O)CC[C@]4(C)[C@H]3CC[C@]12C [TP, testosterone propionate]	–	EC50 (organ weight increase) (AR; immature castrated rats): ~0.03 mg; potency relative to free T (AR; organ weight increase, castrated rats): 10–30 fold
C[C@@H]1C[C@H]2[C@@H]3CCC4=CC(=O)C=C[C@]4(C)[C@@]3(F)[C@@H](O)C[C@]2(C)[C@@]1(O)C(=O)CO [dexamethasone]	–	% inhibition of the reporter system (suppresses activity) [1]: 65%
